Reference: ChEMBL document CHEMBL1201862, “PubChem BioAssay data set” (2004)
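Five compound concentrations were applied to cells in 96-well plates for 48 hours; endpoints were derived by simple linear interpolation of the resulting dose-response curve. Abbreviation: GI50, concentration required for 50% inhibition of growth.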 Activity calls are given as the source filed them. Rule as the data show it: active = GI50 up to about 1.1 µM and inactive = higher.

Legend:
Assay in all cases: NCI anticancer screen, dose series, 48 h
CCRF-CEM = test system: CCRF-CEM
OVCAR-4 = test system: OVCAR-4
SN12C = test system: SN12C
Malme-3M = test system: Malme-3M
NCI-H460 = test system: NCI-H460
SK-MEL-5 = test system: SK-MEL-5
SF-295 = test system: SF-295
UACC-257 = test system: UACC-257
HCC 2998 = test system: HCC 2998
NCI/ADR-RES = test system: NCI/ADR-RES
NCI-H226 = test system: NCI-H226
Hs-578T = test system: Hs-578T
DMS-114 = test system: DMS-114
BT-549 = test system: BT-549
SNB-75 = test system: SNB-75
A549 = test system: A549
OVCAR-5 = test system: OVCAR-5
U-251 = test system: U-251
MCF7 = test system: MCF7
UO-31 = test system: UO-31

Row | SMILES | GI50 (CCRF-CEM) | GI50 (OVCAR-4) | GI50 (SN12C) | GI50 (Malme-3M) | GI50 (NCI-H460) | GI50 (SK-MEL-5) | GI50 (SF-295) | GI50 (UACC-257) | GI50 (HCC 2998) | GI50 (NCI/ADR-RES) | GI50 (NCI-H226) | GI50 (Hs-578T) | GI50 (DMS-114) | GI50 (BT-549) | GI50 (SNB-75) | GI50 (A549) | GI50 (OVCAR-5) | GI50 (U-251) | GI50 (MCF7) | GI50 (UO-31)
1 | CS(=O)(=O)Nc1ccc(Nc2c3ccccc3nc3ccccc23)cc1 | 0.459 µM (active) | 4.17 µM (inactive) | 0.714 µM (active) | 2.15 µM (inactive) | 0.112 µM (active) | 1.71 µM (inactive) | 1.66 µM (inactive) | 1.36 µM (inactive) | 4.25 µM (inactive) | 7.28 µM (inactive) | 1.04 µM (active) | 6.43 µM (inactive) | 1.46 µM (inactive) | 11 µM (inactive) | 3.46 µM (inactive) | 0.325 µM (active) | 4.39 µM (inactive) | 1.74 µM (inactive) | 1.07 µM (active) | 2.23 µM (inactive)
2 | C=C1CC2(OC1=O)c1ccccc1CCc1ccccc12 | 0.627 µM (active) | 1.93 µM (inactive) | 2.52 µM (inactive) | 1.94 µM (inactive) | 12.5 µM (inactive) | 13.1 µM (inactive) | 16.1 µM (inactive) | 3.82 µM (inactive) | 2.54 µM (inactive) | 1.63 µM (inactive) | 13.2 µM (inactive) | 1.94 µM (inactive) | 1.85 µM (inactive) | 1.58 µM (inactive) | 5.69 µM (inactive) | 8.26 µM (inactive) | 14.5 µM (inactive) | 9.12 µM (inactive) | 4.59 µM (inactive) | 9.82 µM (inactive)
3 | CCCCCCCC(CC(=O)NC(CO)C(=O)NC(CO)CC(C)C)OC(=O)CC(CCCCCCC)OC(=O)CC(CCCCCCC)OC1OC(C)C(O)C(OC2OC(C)C(O)C(O)C2O)C1O (stereo not drawn) | 3.37 µM (inactive) | 12.6 µM (inactive) | 14.5 µM (inactive) | 9.66 µM (inactive) | 6.73 µM (inactive) | 7.83 µM (inactive) | 14 µM (inactive) | 12.3 µM (inactive) | 1.52 µM (inactive) | 17.9 µM (inactive) | 16.6 µM (inactive) | 8.45 µM (inactive) | 3.83 µM (inactive) | 14.5 µM (inactive) | 10.5 µM (inactive) | 15.8 µM (inactive) | 13.1 µM (inactive) | 11.1 µM (inactive) | 0.614 µM (active) | 16.6 µM (inactive)
4 | C=CCOc1cc2c(cc1C(C)c1ccc(OC)cc1)OCO2 (stereo not drawn) | 0.443 µM (active) | > 100 µM (inactive) | 0.849 µM (active) | 0.647 µM (active) | 0.409 µM (active) | 0.601 µM (active) | 0.299 µM (active) | 0.263 µM (active) | 0.887 µM (active) | – | 0.813 µM (active) | – | 0.289 µM (active) | – | 0.176 µM (active) | 0.869 µM (active) | 12.2 µM (inactive) | 0.447 µM (active) | 0.453 µM (active) | 0.583 µM (active)
5 | C[C@]12C=CC(=O)C=C1CC[C@H]1[C@@H]3C[C@@H](O)[C@](O)(C(=O)CO)[C@@]3(C)C[C@H](O)[C@@]12F [TRIAMCINOLONE] | 1.4 µM (inactive) | > 100 µM (inactive) | > 100 µM (inactive) | > 100 µM (inactive) | > 100 µM (inactive) | > 100 µM (inactive) | > 100 µM (inactive) | > 100 µM (inactive) | > 100 µM (inactive) | – | > 100 µM (inactive) | – | > 100 µM (inactive) | – | > 100 µM (inactive) | > 100 µM (inactive) | > 100 µM (inactive) | > 100 µM (inactive) | – | > 100 µM (inactive)
